Reference: US20110124742A1, “COMPOSITION AND METHOD OF ADIPOSE CELL DIFFERENTIATION INHIBITION” (NATIONAL YANG-MING UNIVERSITY, priority 2008, published 2011)

Tests used:
Assay type in all cases: cell-based
3T3-L1 adipose cell [1] = assay: MTT assay, cell viability of 3T3-L1 adipose cell; conditions: 0.25 mM (maximal amount)
3T3-L1 adipose cell [2] = assay: 3T3-L1 adipose cell differentiation assay, triglyceride content per unit protein; conditions: day 9, control 0.1% DMSO
Experimental: In the present invention, 3T3-L1 fibroblast cell is purchased from Bioresource collection and research center. Medium for 3T3-L1 fibroblast cell culture contains 10% (v/v) FBS, Dulbecco's modified Eagle's high-glucose medium containing 1% (v/v) penicillin (10000 U/ml) and streptomycin (10 mg/ml). Cell culture is performed in 37 C, 10% CO2 incubators. Subculture is performed at 80-90% cell confluence. After cell reaches 100% confluence, differentiation solution is used for differentiation. The complete differentiation takes 9 days. Differentiation solution contains 0.5 mM IBMX, 10 μg/ml insulin, 0.5 μM dexamethasone in 10% FBS DMEM. Two or three days after 3T3-L1 fibroblast cell reaching 100% confluence (day 0), the original 10% FBS DMEM is removed and differentiation solution is added. Replace cell culture medium at day 3 and day 6 with 10% FBS DMEM containing 10 μg/ml insulin. Harvest cells at day 9 of differentiation for cell morphology observation (Juan, C. C.; Chang, C. L.; Lai, Y. H.; Ho, L. T., Endothelin-1 induces lipolysis in 3T3-L1 adipocytes. Am. J. Physiol. Endocrinol. Metab. 2005, 288, E1146-52).
Mature 3T3-L1 adipose cell stores energy in the form of triglyceride of cell's oil drop. In order to study if plant essential oil is able to inhibit lipid accumulation in 3T3-L1 pre-adipose cell, we use cellular accumulated triglyceride content as an indicator of adipose cell differentiation. The examination method is as follows. Remove 3T3-L1 cell culture medium, wash cell with PBS for three times. Add protein lysis buffer (50 mM Tris-HCl, 150 mM NaCl, 0.5% sodium deoxycholate, 1% NP-40, 0.1% SDS) containing 10-fold diluted protease inhibitor into each well. Transfer mixture of scraped cells and buffer into microcentrifuge tube. Take 5 μl of homogenized cell mixture and 250 μl of reagent for reaction. The reaction is complete at room temperature in 1 hour, and then detects OD550 nm. Use OD value to calculate triglyceride concentration from a Merck multi-system calibrator generated standard curve. Determine triglyceride and protein concentration in each well, and the division of these two values (mg TG/mg protein) represents triglyceride content per unit protein in the cell. […]
Dilute Acorus essential oil (density 1.10 g/ml) to 25, 62.5, and 125 mg/ml with DMSO. Until cell growth reaches post confluence (day 0), diluted Acorus essential oil solution is added into differentiation solution in 1:1000 dilution into cell (final concentration is 25, 62.5, and 125 μg/ml). While replacing growth medium containing insulin at day 3 and day 6, replenish each concentration of Acorus essential oil in culture medium as well as the ones adding 0.1% DMSO as controls. The analysis at day 9 discovered that 25 μg/ml Acorus essential oil reduces triglyceride content per cell unit protein to 77% relative to its control. Acorus essential oil at 62.5 and 125 μg/ml essential oil reduces it to 55% and 20% relative to its control (FIG. 2a).
Ten ml of Acorus essential oil dissolved in hexane (5 ml essential oil and 5 ml hexane) is loaded into prepacked silica gel glass column and eluted by hydrophobicity (Table 2). Essential oil can be separated into 5 portions based on each component's hydrophobicity. Remove elution solvent by lypholizer, dissolve each component in 2 ml DMSO or methanol, and store it in glass vial. 3T3-L1 is used as a cell model, we add various fractions in DMSO or methanol at concentration of 50 μg/ml into cell differentiation medium and growth medium. At day 9 of complete differentiation, analyze triglyceride content per cell unit protein. […] Therefore, the second fraction has been chosen for further analysis.
After identifying the second fraction of Acorus essential oil as α-asarone and β-asarone, we further examine the effect of these two compounds on adipose cell differentiation inhibition. We dissolve α-asarone and β-asarone in DMSO to make concentration of 0.015, 0.03, 0.06, 0.13, and 0.25 M solution. […]

PPARγ [3] = assay: PPARγ protein expression by western blot in 3T3-L1 cell; conditions: 3 days, α-tubulin internal control
Experimental: (§1) Western blot analysis: Prepare 12% SDS-PAGE as follows. Recipe of separating gel contains 2.5 ml of 1.5 M Tris-HCl pH 8.8, 100 μl of 10% SDS, 3 ml of acrylamide/bis (37.5:1; 40%), 4.35 ml RO water, 50 μl of 10% ammonium persulfate, and 5 μl of TEMED. Recipe of stacking gel contains 1.25 ml of 0.5 M Tris-HCl pH 6.8, 50 μl of 10% SDS, 0.065 ml of acrylamide/bis (37.5:1; 40%), 3.05 ml of RO water, 25 μl of APS and 5 μl of TEMED. Load same amount of protein in each well, and electrophoresis is performed under 100V for 2 hours. Prepare transfer buffer (10 mM CAPS-NaOH, 10% methanol, pH 11.0), and use methanol to rinse PVDF transfer membrane. After electrophoresis is complete, remove SDS-PAGE gel, cover the gel and PVDF membrane with transfer buffer rinsed 3 MM paper. Put it into transfer tank full of transfer buffer, electrophoresis under 500 mA for 1 hour. Take transfer membrane out, block it with 5% skim milk in TBST (20 mM Tris, 137 mM NaCl, 0.01% Tween-20), and wash it with TBST briefly. Add primary antibody for 2-hour reaction, wash membrane with TBST for three times, 15 minutes each. Add appropriate amount of secondary antibody for 1 hour, wash membrane with TBST for three times, 15 minutes each. In the end, evenly cover ECL on the transfer membrane, place membrane in the film cassette, and expose it to X-ray film. Develop the film for analysis.
(§2) Analyze cells of β-asarone supplement for 3 days by western analysis. The expression of PPARγ from cells treated with β-asarone at concentration of 0.03, 0.06, and 0.13 mM is 97%, 117%, and 111% relative to its normal differentiated control with no significant difference. When β-asarone reaches 0.25 mM, the expression of PPARγ reduces to 45% relative to its control (FIG. 12). In terms of another differentiation marker gene C/EBPα, the expression of C/EBPα treated with β-asarone at concentrations of 0.03 and 0.06 mM is 113% and 77% relative to its control with no statistical difference. However, when β-asarone reaches 0.13 mM and 0.25 mM, the expression of C/EBPα reduces to 43% and 33% relative to its control (FIG. 13).

3T3-L1 adipose cell [4] = assay: Oil red staining of 3T3-L1 adipose cell; conditions: 0.03, 0.06, 0.13, 0.25 mM, day 9
Experimental: Acorus essential oil inhibition effect on cell differentiation can be visualized under microscope by oil red staining. It is performed as follows. Dissolve 0.03 g of Oil red O in 10 ml of isopropylalcohol as stock solution. Mix 2.4 ml of stock solution and 1.6 ml of PBS and filter it before staining. Remove medium from cells, add appropriate amount of filtered staining solution for 15 minutes, wash cell three times with PBS for 5 minutes each, and then add 4% paraformaldehyde for 15 minutes to fix cells, repeat wash step by PBS. Add 0.1% Triton X-100 for 30 seconds, and repeat wash step by PBS. Add appropriate amount of hematoxylin for 30 seconds followed by one last wash step by PBS. Observe the image under a microscope and record the image.

C/EBPα [5] = assay: C/EBPα protein expression by western blot in 3T3-L1 cell; conditions: 3 days, α-tubulin internal control
Experimental: as §1, §2

PPARγ [6] = assay: PPARγ mRNA expression by RT-PCR in 3T3-L1 cell; conditions: 3 days, GAPDH internal control
Experimental: (§3) RNA extraction: Remove 3T3-L1 cell medium directly from 10 cm petri dish, add 1 ml of Trizol reagent, and scrape off cells. Transfer cell and reagent mixture into a microcentrifuge tube. Add 200 μl chloroform in each tube and vortex for 15 seconds until it is clouded. Leave it on ice for 2-3 minutes at 4 C, spin it at 12000 rpm for 20 minutes. Transfer supernatant to another microcentrifuge tube, add equal amount of isopropylalcohol, mix and leave it on ice for 10 minutes. Spin it at 12000 rpm for 10 minutes at 4 C. After centrifugation, remove supernatant and save RNA pellet in the bottom. Add 75% cold ethanol, spin it at 7500 rpm for 10 minutes at 4 C. Remove ethanol after centrifugation and air dry the pellet until the edge is clear. Add appropriate amount of DEPC H2O to dissolve RNA pellet, and determine RNA concentration by OD260/OD280 nm with a spectrophotometer.
(§4) RT-PCR: Take 2 μg of RNA for reverse transcription reaction. Mix RNA, DEPC H2O and 0.25 μg random primer to make total volume of 12 μl. Keep it at 70 C for 10 minutes, and then leave it on ice. Add 4 μl of 5× first-strand buffer, 2 μl of 0.1 M dithiothreitol, 1 μl of 10 mM dNTP and 1 μl of SuperScript™ II reverse transcriptase 200 U/μl. Keep it at 42 C for 1.5 hours, and then heat it at 70 C for 15 minutes to stop reverse transcription. Take 1 μl of cDNA from reverse transcription, mix with 5 μl of 10×PCR buffer, 1 μl of 10 mM dNTP, 2 μl of primer, 40.5 μl of sterile water, and 0.5 μl of Taq DNA polymerase (1 U/μl) for PCR reaction. The SEQ ID NO: 1 to SEQ ID NO: 6 is listed from the top to bottom accordingly. PCR program is listed as follows: 95 C/5 min; 25˜30 cycles of 95 C/1 min, 55 C/1 min, 72 C/1 min; 72 C/10 min, and stop reaction at 4 C.
(§5) Because PPARγ and C/EBPα are early marker genes during adipose cell differentiation, these genes have been analyzed from cells harvested after 3 days of β-asarone addition. […]

C/EBPα [7] = assay: C/EBPα mRNA expression by RT-PCR in 3T3-L1 cell; conditions: 3 days, GAPDH internal control
Experimental: as §3, §4, §5

`C/C=C/c1cc(OC)c(OC)cc1OC` (single isomer, unassigned) [α-asarone, reference compound] was tested, and the “cell viability rate relative to normal differentiated control” value (3T3-L1 adipose cell [1]) was 78%, the “triglyceride content relative to normal differentiation control” value (3T3-L1 adipose cell [2]; 0.015 mM) was 107% and the “triglyceride content relative to normal differentiation control” value (3T3-L1 adipose cell [2]; 0.03 mM) was 106%. For the same compound, the “triglyceride content relative to normal differentiation control” value (3T3-L1 adipose cell [2]; 0.06 mM) was 99%, the “triglyceride content relative to normal differentiation control” value (3T3-L1 adipose cell [2]; 0.13 mM) was 104% and the “triglyceride content relative to normal differentiation control” value (3T3-L1 adipose cell [2]; 0.25 mM) was 105%.
With `C/C=C\c1cc(OC)c(OC)cc1OC` (single isomer, unassigned) [β-asarone] the “PPARγ protein expression relative to normal differentiated control” value (PPARγ [3]; 0.03 mM) was 97%, the “PPARγ protein expression relative to normal differentiated control” value (PPARγ [3]; 0.06 mM) was 117% and the “PPARγ protein expression relative to normal differentiated control” value (PPARγ [3]; 0.13 mM) was 111%. For the same compound, the “oil red staining, red oil covered area” value (3T3-L1 adipose cell [4]) was “red oil covered area is decreasing”, the “C/EBPα protein expression relative to its control” value (C/EBPα [5]; 0.03 mM) was 113% and the “C/EBPα protein expression relative to its control” value (C/EBPα [5]; 0.06 mM) was 77%. The “C/EBPα protein expression relative to its control” value (C/EBPα [5]; 0.25 mM) was 33%, the “PPARγ mRNA expression relative to normal differentiated control” value (PPARγ [6]; 0.03 mM) was 96% and the “PPARγ mRNA expression relative to normal differentiated control” value (PPARγ [6]; 0.06 mM) was 94%. For the same compound, the “PPARγ mRNA expression relative to normal differentiated control” value (PPARγ [6]; 0.13 mM) was 90%, the “cell viability rate relative to normal differentiated control” value (3T3-L1 adipose cell [1]) was 79% and the “triglyceride content relative to normal differentiation control” value (3T3-L1 adipose cell [2]; 0.015 mM) was 101%. The “triglyceride content relative to normal differentiation control” value (3T3-L1 adipose cell [2]; 0.03 mM) was 90%, the “triglyceride content relative to normal differentiation control” value (3T3-L1 adipose cell [2]; 0.06 mM) was 91% and the “triglyceride content relative to normal differentiation control” value (3T3-L1 adipose cell [2]; 0.13 mM) was 66%. The “triglyceride content relative to normal differentiation control” value (3T3-L1 adipose cell [2]; 0.25 mM) was 47%, the “C/EBPα mRNA expression relative to normal differentiated control” value (C/EBPα [7]; 0.03 mM) was 99% and the “C/EBPα mRNA expression relative to normal differentiated control” value (C/EBPα [7]; 0.06 mM) was 94%. The “C/EBPα mRNA expression relative to normal differentiated control” value (C/EBPα [7]; 0.13 mM) was 96%.
